Results reported in ChEMBL document CHEMBL4387773, “Identification of potent, selective and orally bioavailable phenyl ((R)-3-phenylpyrrolidin-3-yl)sulfone analogues as RORγt inverse agonists” (Bioorg Med Chem Lett, 2019).

test system: not listed separately; assay: Stability in mouse liver microsomes assessed as parent compound remaining after 10 mins; assay type: ADME, Microsome; conditions: liver microsomes, read-out: Stability

Structure (SMILES) | remaining at 10 min [%]
O=C(O)C1CCC(O)(C(=O)N2CC[C@](c3ccc(C(F)(C(F)(F)F)C(F)(F)F)cc3)(S(=O)(=O)c3ccc(F)cc3)C2)CC1 (stereo in doubt; 12) | 99
O=C1NC(=O)C2(CCC(C(=O)N3CC[C@](c4ccc(C(F)(C(F)(F)F)C(F)(F)F)cc4)(S(=O)(=O)c4ccc(F)cc4)C3)CC2)N1 (stereo in doubt; 24) | 81
CO[C@]1(C(=O)N2CC[C@](c3ccc(C(F)(C(F)(F)F)C(F)(F)F)cc3)(S(=O)(=O)c3ccc(F)cc3)C2)CC[C@H](C(=O)O)CC1 | 95
O=C([C@H]1CC[C@](F)(C(=O)O)CC1)N1CC[C@](c2ccc(C(F)(C(F)(F)F)C(F)(F)F)cc2)(S(=O)(=O)c2ccc(F)cc2)C1 | 70

molecular target: T1, Nuclear receptor ROR-beta (Homo sapiens, UniProt Q92753); assay: Inverse agonist activity at human Gal4-fused RORbeta LBD (200 to 559 residues) expressed in human Jurkat cells measured after 18 hrs by steady-glo luciferase reporter gene assay; assay type: cell-based; conditions: not given
T1 sequence (Q92753 whole entry): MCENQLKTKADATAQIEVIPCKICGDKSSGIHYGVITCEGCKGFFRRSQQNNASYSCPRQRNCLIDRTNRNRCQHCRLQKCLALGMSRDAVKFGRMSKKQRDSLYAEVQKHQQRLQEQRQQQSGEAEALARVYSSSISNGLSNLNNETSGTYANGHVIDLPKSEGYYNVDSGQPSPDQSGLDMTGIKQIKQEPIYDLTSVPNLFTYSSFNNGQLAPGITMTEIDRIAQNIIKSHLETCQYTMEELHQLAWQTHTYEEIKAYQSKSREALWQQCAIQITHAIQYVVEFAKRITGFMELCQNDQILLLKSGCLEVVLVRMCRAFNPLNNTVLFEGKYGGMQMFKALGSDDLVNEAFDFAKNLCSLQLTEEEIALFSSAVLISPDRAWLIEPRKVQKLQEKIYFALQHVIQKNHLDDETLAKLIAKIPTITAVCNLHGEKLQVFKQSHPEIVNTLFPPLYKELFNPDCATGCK

Structure (SMILES) | EC50 [µM]
O=C(O)C1CCC(O)(C(=O)N2CC[C@](c3ccc(C(F)(C(F)(F)F)C(F)(F)F)cc3)(S(=O)(=O)c3ccc(F)cc3)C2)CC1 (stereo in doubt; 12) | > 40
O=C1NC(=O)C2(CCC(C(=O)N3CC[C@](c4ccc(C(F)(C(F)(F)F)C(F)(F)F)cc4)(S(=O)(=O)c4ccc(F)cc4)C3)CC2)N1 (stereo in doubt; 24) | > 40
CO[C@]1(C(=O)N2CC[C@](c3ccc(C(F)(C(F)(F)F)C(F)(F)F)cc3)(S(=O)(=O)c3ccc(F)cc3)C2)CC[C@H](C(=O)O)CC1 | > 40
O=C([C@H]1CC[C@](F)(C(=O)O)CC1)N1CC[C@](c2ccc(C(F)(C(F)(F)F)C(F)(F)F)cc2)(S(=O)(=O)c2ccc(F)cc2)C1 | > 40

molecular target: T2, Nuclear receptor subfamily 1 group I member 2 (Homo sapiens, UniProt O75469); assay: (§1) Transactivation of PXR (unknown origin) expressed in human HepG2 cells assessed as maximum receptor activation response relative to control; assay type: cell-based; conditions: hepg2
T2 sequence (O75469 whole entry): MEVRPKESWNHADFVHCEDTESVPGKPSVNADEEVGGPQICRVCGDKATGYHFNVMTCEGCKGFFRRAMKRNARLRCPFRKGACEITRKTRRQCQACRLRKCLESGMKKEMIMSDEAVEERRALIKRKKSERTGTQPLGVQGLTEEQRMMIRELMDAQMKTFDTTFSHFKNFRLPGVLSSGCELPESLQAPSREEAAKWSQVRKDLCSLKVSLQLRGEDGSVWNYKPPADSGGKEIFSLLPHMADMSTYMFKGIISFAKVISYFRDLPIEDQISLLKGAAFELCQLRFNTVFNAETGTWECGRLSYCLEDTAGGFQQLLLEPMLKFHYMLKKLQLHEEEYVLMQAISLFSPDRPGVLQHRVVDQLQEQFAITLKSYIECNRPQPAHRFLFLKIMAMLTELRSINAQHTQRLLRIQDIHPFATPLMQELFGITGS

Structure (SMILES) | %max [%]
O=C(O)C1CCC(O)(C(=O)N2CC[C@](c3ccc(C(F)(C(F)(F)F)C(F)(F)F)cc3)(S(=O)(=O)c3ccc(F)cc3)C2)CC1 (stereo in doubt; 12) | 9
O=C1NC(=O)C2(CCC(C(=O)N3CC[C@](c4ccc(C(F)(C(F)(F)F)C(F)(F)F)cc4)(S(=O)(=O)c4ccc(F)cc4)C3)CC2)N1 (stereo in doubt; 24) | 28

molecular target: T3, PXR (Homo sapiens, UniProt O75469); assay: as §1; assay type: cell-based; conditions: human HepG2 cells that express PXR, read-out: %max
T3 sequence (O75469 whole entry): T2 sequence (O75469 whole entry)

Structure (SMILES) | Emax [%]
CO[C@]1(C(=O)N2CC[C@](c3ccc(C(F)(C(F)(F)F)C(F)(F)F)cc3)(S(=O)(=O)c3ccc(F)cc3)C2)CC[C@H](C(=O)O)CC1 | 94
O=C([C@H]1CC[C@](F)(C(=O)O)CC1)N1CC[C@](c2ccc(C(F)(C(F)(F)F)C(F)(F)F)cc2)(S(=O)(=O)c2ccc(F)cc2)C1 | 62

molecular target: T4, Nuclear receptor ROR-alpha (Homo sapiens, UniProt P35398); assay: Inverse agonist activity at human Gal4-fused RORalpha LBD (272 to 556 residues) expressed in human Jurkat cells measured after 18 hrs by steady-glo luciferase reporter gene assay; assay type: cell-based; conditions: not given
T4 sequence (P35398 whole entry): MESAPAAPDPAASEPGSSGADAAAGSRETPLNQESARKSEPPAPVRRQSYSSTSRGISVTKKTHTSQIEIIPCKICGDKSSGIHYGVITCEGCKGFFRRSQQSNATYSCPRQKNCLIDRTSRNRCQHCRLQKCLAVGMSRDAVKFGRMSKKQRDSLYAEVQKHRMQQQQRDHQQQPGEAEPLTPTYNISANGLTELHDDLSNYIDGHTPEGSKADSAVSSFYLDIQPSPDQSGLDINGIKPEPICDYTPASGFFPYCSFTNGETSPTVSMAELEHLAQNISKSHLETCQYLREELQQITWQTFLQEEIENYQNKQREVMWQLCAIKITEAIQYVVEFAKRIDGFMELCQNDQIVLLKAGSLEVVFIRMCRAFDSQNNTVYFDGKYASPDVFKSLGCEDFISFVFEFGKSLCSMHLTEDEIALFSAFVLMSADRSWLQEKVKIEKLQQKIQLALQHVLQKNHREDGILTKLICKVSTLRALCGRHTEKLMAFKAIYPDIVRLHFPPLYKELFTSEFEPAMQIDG

Structure (SMILES) | EC50 [µM]
O=C(O)C1CCC(O)(C(=O)N2CC[C@](c3ccc(C(F)(C(F)(F)F)C(F)(F)F)cc3)(S(=O)(=O)c3ccc(F)cc3)C2)CC1 (stereo in doubt; 12) | > 40
O=C1NC(=O)C2(CCC(C(=O)N3CC[C@](c4ccc(C(F)(C(F)(F)F)C(F)(F)F)cc4)(S(=O)(=O)c4ccc(F)cc4)C3)CC2)N1 (stereo in doubt; 24) | > 40
CO[C@]1(C(=O)N2CC[C@](c3ccc(C(F)(C(F)(F)F)C(F)(F)F)cc3)(S(=O)(=O)c3ccc(F)cc3)C2)CC[C@H](C(=O)O)CC1 | > 40
O=C([C@H]1CC[C@](F)(C(=O)O)CC1)N1CC[C@](c2ccc(C(F)(C(F)(F)F)C(F)(F)F)cc2)(S(=O)(=O)c2ccc(F)cc2)C1 | > 40

test system: not listed separately; assay: Stability in human liver microsomes assessed as parent compound remaining after 10 mins; assay type: ADME, Microsome; conditions: liver microsomes, read-out: Stability

Structure (SMILES) | remaining at 10 min [%]
O=C(O)C1CCC(O)(C(=O)N2CC[C@](c3ccc(C(F)(C(F)(F)F)C(F)(F)F)cc3)(S(=O)(=O)c3ccc(F)cc3)C2)CC1 (stereo in doubt; 12) | 100
O=C1NC(=O)C2(CCC(C(=O)N3CC[C@](c4ccc(C(F)(C(F)(F)F)C(F)(F)F)cc4)(S(=O)(=O)c4ccc(F)cc4)C3)CC2)N1 (stereo in doubt; 24) | 84
CO[C@]1(C(=O)N2CC[C@](c3ccc(C(F)(C(F)(F)F)C(F)(F)F)cc3)(S(=O)(=O)c3ccc(F)cc3)C2)CC[C@H](C(=O)O)CC1 | 82
O=C([C@H]1CC[C@](F)(C(=O)O)CC1)N1CC[C@](c2ccc(C(F)(C(F)(F)F)C(F)(F)F)cc2)(S(=O)(=O)c2ccc(F)cc2)C1 | 100

molecular target: T5, Oxysterols receptor LXR-beta (Homo sapiens, UniProt P55055); assay: Transactivation of human GAL4-fused LXRbeta expressed in African green monkey CV1 cells; assay type: cell-based; conditions: not given
T5 sequence (P55055 whole entry): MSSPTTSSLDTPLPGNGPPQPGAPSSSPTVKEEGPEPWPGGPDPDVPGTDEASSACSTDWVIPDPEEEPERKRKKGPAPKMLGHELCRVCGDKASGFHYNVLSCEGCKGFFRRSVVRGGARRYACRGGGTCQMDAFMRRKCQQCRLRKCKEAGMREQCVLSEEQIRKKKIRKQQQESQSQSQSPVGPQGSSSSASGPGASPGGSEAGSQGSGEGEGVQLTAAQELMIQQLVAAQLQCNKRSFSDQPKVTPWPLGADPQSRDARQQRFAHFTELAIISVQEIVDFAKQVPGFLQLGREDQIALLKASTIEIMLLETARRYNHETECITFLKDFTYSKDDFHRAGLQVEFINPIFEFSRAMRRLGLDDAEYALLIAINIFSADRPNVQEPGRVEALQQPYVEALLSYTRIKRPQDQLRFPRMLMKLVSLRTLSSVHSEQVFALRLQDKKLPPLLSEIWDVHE

Structure (SMILES) | EC50 [µM]
O=C(O)C1CCC(O)(C(=O)N2CC[C@](c3ccc(C(F)(C(F)(F)F)C(F)(F)F)cc3)(S(=O)(=O)c3ccc(F)cc3)C2)CC1 (stereo in doubt; 12) | > 7.5
O=C1NC(=O)C2(CCC(C(=O)N3CC[C@](c4ccc(C(F)(C(F)(F)F)C(F)(F)F)cc4)(S(=O)(=O)c4ccc(F)cc4)C3)CC2)N1 (stereo in doubt; 24) | > 7.5
CO[C@]1(C(=O)N2CC[C@](c3ccc(C(F)(C(F)(F)F)C(F)(F)F)cc3)(S(=O)(=O)c3ccc(F)cc3)C2)CC[C@H](C(=O)O)CC1 | > 7.5
O=C([C@H]1CC[C@](F)(C(=O)O)CC1)N1CC[C@](c2ccc(C(F)(C(F)(F)F)C(F)(F)F)cc2)(S(=O)(=O)c2ccc(F)cc2)C1 | > 7.5

molecular target: T2, Nuclear receptor subfamily 1 group I member 2; assay: Transactivation of PXR (unknown origin) expressed in human HepG2 cells; assay type: cell-based; conditions: not given

Structure (SMILES) | EC50 [µM]
O=C(O)C1CCC(O)(C(=O)N2CC[C@](c3ccc(C(F)(C(F)(F)F)C(F)(F)F)cc3)(S(=O)(=O)c3ccc(F)cc3)C2)CC1 (stereo in doubt; 12) | > 50
O=C1NC(=O)C2(CCC(C(=O)N3CC[C@](c4ccc(C(F)(C(F)(F)F)C(F)(F)F)cc4)(S(=O)(=O)c4ccc(F)cc4)C3)CC2)N1 (stereo in doubt; 24) | > 14
CO[C@]1(C(=O)N2CC[C@](c3ccc(C(F)(C(F)(F)F)C(F)(F)F)cc3)(S(=O)(=O)c3ccc(F)cc3)C2)CC[C@H](C(=O)O)CC1 | > 18
O=C([C@H]1CC[C@](F)(C(=O)O)CC1)N1CC[C@](c2ccc(C(F)(C(F)(F)F)C(F)(F)F)cc2)(S(=O)(=O)c2ccc(F)cc2)C1 | > 17

molecular target: T6, Oxysterols receptor LXR-alpha (Homo sapiens, UniProt Q13133); assay: Transactivation of human GAL4-fused LXRalpha expressed in African green monkey CV1 cells; assay type: cell-based; conditions: not given
T6 sequence (Q13133 whole entry): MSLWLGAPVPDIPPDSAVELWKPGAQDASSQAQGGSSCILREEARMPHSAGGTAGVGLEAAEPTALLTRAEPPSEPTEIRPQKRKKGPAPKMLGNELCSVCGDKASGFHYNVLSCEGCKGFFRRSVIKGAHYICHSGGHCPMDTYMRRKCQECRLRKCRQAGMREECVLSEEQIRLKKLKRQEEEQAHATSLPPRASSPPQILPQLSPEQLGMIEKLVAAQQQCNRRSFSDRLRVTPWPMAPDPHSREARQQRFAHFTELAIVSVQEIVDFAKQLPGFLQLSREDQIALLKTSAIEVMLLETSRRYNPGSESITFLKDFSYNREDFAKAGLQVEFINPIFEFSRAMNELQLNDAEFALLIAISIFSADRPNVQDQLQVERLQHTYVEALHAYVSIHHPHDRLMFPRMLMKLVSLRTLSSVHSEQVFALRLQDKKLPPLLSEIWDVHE

Structure (SMILES) | EC50 [µM]
O=C(O)C1CCC(O)(C(=O)N2CC[C@](c3ccc(C(F)(C(F)(F)F)C(F)(F)F)cc3)(S(=O)(=O)c3ccc(F)cc3)C2)CC1 (stereo in doubt; 12) | > 7.5
O=C1NC(=O)C2(CCC(C(=O)N3CC[C@](c4ccc(C(F)(C(F)(F)F)C(F)(F)F)cc4)(S(=O)(=O)c4ccc(F)cc4)C3)CC2)N1 (stereo in doubt; 24) | > 7.5
CO[C@]1(C(=O)N2CC[C@](c3ccc(C(F)(C(F)(F)F)C(F)(F)F)cc3)(S(=O)(=O)c3ccc(F)cc3)C2)CC[C@H](C(=O)O)CC1 | > 7.5
O=C([C@H]1CC[C@](F)(C(=O)O)CC1)N1CC[C@](c2ccc(C(F)(C(F)(F)F)C(F)(F)F)cc2)(S(=O)(=O)c2ccc(F)cc2)C1 | > 7.5
